Measured values from patent publication US12685757B2, “Method to increase systemic blood pressure in shock” (GEORGETOWN UNIVERSITY, priority 2019, dated 2026).
Entries after “also recorded” stand apart in the source; their conditions may differ.

Columns and labels:
[1] = tested on: arteriolar smooth muscle (ASM) cells; assay: Ca2+ imaging in isolated arterioles and arteriolar smooth muscle cells; assay type: cell-based, mice
Description: Arterial smooth muscle cell isolation. Radial artery branch (artery #18) and cerebellar branch (cerebral artery #3) were washed in Mg^2+-based physiological saline solution (Mg-PSS) containing 5 mM KCl, 140 mM NaCl, 2 mM MgCl2, 10 mM Hepes, and 10 mM glucose, (pH 7.3). Arteries were initially digested in papain (0.6 mg/ml) (Worthington) and dithioerythritol (1 mg/ml) in Mg-PSS at 37° C. for 15 min, followed by a 15-min incubation at 37° C. in type II collagenase (1.0 mg/ml) (Worthington) in Mg-PSS. The digested arteries were washed three times in ice-cold Mg-PSS solution and incubated on ice for 30 min. After this incubation period, vessels were triturated to liberate smooth muscle cells and stored in ice-cold Mg-PSS before use. Smooth muscle cells were studied within 6 hours of isolation.
Ca^2+ imaging. Arterioles and ASM cells were loaded with 1 μM Fluo-4-AM (Invitrogen, Thermo Fisher Scientific) in a standard buffer containing in mM: 140 NaCl, 4 KCl, 1 MgCl2, 1.2 CaCl2), 10 HEPES, and 5 glucose (pH 7.3). For studies of hypoosmotic stretch, NaCl was reduced to 70 mM, and mannitol (70-150 mM) was added to adjust osmolarity to between 220 and 310 mOsm. Final osmolarity was confirmed with an osmometer (Model 3320, Advanced Instruments). Temperature was maintained either at room temperature (23° C.) or at 32-35° C. using a heated microscope stage (Tokai Hit). Bath temperature was verified by a thermistor probe (Warner Instruments). Cells were imaged with a 20× objective using a Nikon TE2000 microscope with an excitation filter of 480±15 nm and an emission filter of 535±25 nm. The images were captured by a Retiga 3000 digital camera (QImaging) and analysis was performed offline using ImageJ. Individual smooth muscle cells were counted for sensitivity to capsaicin and KCl. Sensitivity was defined as a greater than 20% change from baseline (typically responses were greater than 100%). Solutions were applied via a pencil (250-μm diameter) that was attached to a valve-controlled gravity-fed perfusion system.

anesthetized rat = assay: Systemic blood pressure recording in anesthetized rats; assay type: in vivo
Description: (§1) Systemic blood pressure recording: The experiments were performed in anesthetized mice (urethane 1.2-1.5 g/kg/IP) and rats (thiopental 50 mg/kg/IP; supplement if needed was 5 mg/kg/IV). Subsequent to anesthesia, mice or rats underwent cannulation of the carotid artery and jugular vein as follows:
Surgical preparation rat: Similar to the mouse, following intubation of the trachea, the left carotid artery, and jugular vein were cannulated with a polyethylene tubing (PE50) to monitor blood pressure and infuse drugs, respectively. Blood pressure was continuously recorded via a pressure transducer connected to the Haemosys hemodynamic system (Experimetria Ltd., Budapest, Hungary), as was the ECG. The ECG was recorded from the extremities of the animal by means of hypodermic metal needles inserted subcutaneously in accordance with the Einthoven method (I, II, III leads). As in the mouse, heart rate was determined from lead II of the ECG recordings and body core temperature was maintained at 37±0.5° C. with a temperature controlled infrared heating lamp. Drug administration: Intravenous infusion of drugs was initiated only when a stable baseline of blood pressure and heart rate was present. This was also the case when drugs were re-administered.

[2] = bolus IV, up to 4 μg/kg; cited from earlier work
[3] = tested on: isolated pressurized (60 mmHg) arteries; assay: Ex vivo contractility of isolated pressurized arteries; set-up: species or system mice; conditions: for response to prolonged application: arterioles
Description: Ex vivo artery physiology: Skeletal muscle arteries (radial artery branch, artery #18, subscapular branch artery #14) and cerebellar branch, cerebral artery #3) were isolated and cannulated with glass micropipettes secured with monofilament threads. The pipette and bathing solution contained modified PSS (125 mM NaCl, 3 mM KCl, 26 mM NaHCO3, 1.25 mM NaH2PO4, 1 mM MgCl2, 4 mM D-glucose, and 2 mM CaCl2)) aerated with a gas mixture consisting of 95% 02, 5% CO2, to maintain pH (pH 7.4). Arterioles were pressure clamped (60 mmHg) using a custom-built apparatus in a heated imaging chamber (Tokai Hit), viewed with a 10× objective using a Nikon TE2000 microscope and recorded by a Retiga 3000 digital camera (QImaging). The arteriole diameter was measured at several locations along each arteriole using the NIH-ImageJ software's edge-detection plug-in (Diameter). The software automatically detects the distance between edges (by resampling a total of five times from adjacent pixels) yielding a continuous read-out SD of a vessel's diameter.

[4] = tested on: vascular smooth muscle cell; assay: Voltage-clamp currents in vascular smooth muscle cell; assay type: cell-based
anesthetized mice = assay: Systemic blood pressure recording in anesthetized mice; assay type: in vivo
Description: as §1
Surgical preparation mouse: After the depth of anesthesia was confirmed by lack of pedal and corneal reflexes, mice were intubated via the trachea after a tracheotomy to maintain an open airway and to institute artificial respiration when necessary. Next, the left carotid artery and the right jugular vein were cannulated with a Millar catheter (1F SPR-1000) and a polyethylene tubing (PE-10), respectively, for monitoring blood pressure and for systemic infusion of drugs. To monitor heart rate, a three-point needle electrode-assembly representing Lead II of the electrocardiogram (ECG) was attached subcutaneously to the right and left forelimbs along with a reference electrode to the left hindlimb. Both the Millar catheter and the ECG assembly were coupled to a PowerLab data acquisition system (ADInstruments, Inc.). Prior to vessel cannulation, the adjacent left cervical vagus was carefully isolated from the left carotid artery. Body temperature was monitored by a digital rectal thermometer and maintained at 37±1° C. with an infrared heat lamp.

radial branch arteries = assay: Intravital imaging of radial branch arteries; assay type: in vivo, mice; conditions: local administration
Description: Intravital imaging: Intravital imaging was performed in radial artery branches (~20 and 60 μm in diameter, artery #18 in FIG. 2F). Animals were anesthetized with urethane (1.2 g/kg/IP). The forelimb was shaved and an incision was made. The skin and underlying muscle tissue were reflected to expose the brachial-radial artery junction. Both in WT and TRPV1-null mice, the arteries were visualized with a Zeiss stereomicroscope and illuminated with a low power blue light (using a standard GFP filter cube) exploiting the differential auto-fluorescence between tissue and blood. In TRPV1-Cre:ChR2/tdTomato mice, arteries were visualized with low power visible irradiation and stimulated with blue light. The exposed arteries were locally perfused (using a 250 μm pencil connected to a valve-controlled gravity-fed perfusion system) with preheated PSS solutions containing in mM: 140 NaCl, 4 KCl, 1 MgCl2, 1.2 CaCl2), 10 HEPES, and 5 glucose (pH 7.3). The surface tissue temperature (34-35° C.) was measured via a thermistor (Warner Instruments) that was positioned next to the artery. Arteries were challenged with a PSS containing 0 Ca^2+/1 mM EGTA to measure the passive diameter. The arteriole diameter was measured using ImageJ as described above for the ex vivo vessels.

[5] = cited from earlier work
DRG = assay: nLacZ staining of DRG after systemic TRPV1 agonist (neurotoxicity); assay type: in vivo; conditions: 50 μg/kg; TRPV1-nLacZ reporter mice; preliminary data
Excerpt: A potential adverse effect of TRPV1 agonists is toxicity to sensory nerves. Indeed, in vivo administration of the ultrapotent agonist, resiniferatoxin (RTX), or even high doses of capsaicin can lead to destruction of TRPV1+ neurons (Szallasi S and Blumberg P M, “Vanilloid receptor loss in rat sensory ganglia associated with long term desensitization to resiniferatoxin” Neurosci Lett 140 (1)(1992)51-54. In one embodiment, TRPV1 agonists that poorly penetrate the CNS, such as DkTx or BrP-LPA, are employed. In vivo toxicity is tested by the administration of TRPV1 agonists in TRPV1^PLAP-nLacZ mice based on the highest cumulative doses utilized in EXAMPLE 5. One week later, DRG are isolated and analyzed for nLacZ staining. […] This analysis therefore determines TRPV1 agonist neurotoxicity and forms an assay for toxicity limiting strategies. In one embodiment, BrP-LPA is employed as a more hydrophilic molecule than capsaicin with less neurotoxicity. In another embodiment, DkTx, with limited CNS penetration, is employed to avoid neurotoxicity.
X-gal staining. TRPV1^PLAP-nlacZ mice were anesthetized with isoflurane and perfused through the heart using PBS (0.1M, pH 7.3) followed by ice-cold 2-4% buffered paraformaldehyde. […]

Row | Compound | Ca2+ responses in arterioles from TRPV1-null mice ([1]; TRPV1-null mice) | Ca2+ signaling in ASM cells ([1]; subset of ASM cells from wild-type mice) | heart rate at peak response (anesthetized rat; at peak pressor/depressor response) | heart rate effect of bolus injections (anesthetized rat; bolus injection, prevented by atropine or slower infusion) | rise in systolic and diastolic blood pressure (anesthetized rat; intravenous, highest dose tested (4-32 μg/kg)) [mm Hg] | sensations reported by subjects [2] | constriction of arteries from TRPV1-null mice ([3]; 1 μM, TRPV1-null mice) | Emax at 1 µM ([3]; Mus musculus, 1 μM, wild-type and TRPV1-Cre:tdTomato mice, read-out: constriction of brain arterioles, % of the maximal response to 50 mM KCl) [%] | response to prolonged application [3] | effect on coronary arterioles ([3]; effect inversely proportional to vessel diameter) | currents in voltage-clamped cell [4] | effect on systemic blood pressure in mice (anesthetized mice; IV infusion, wild type but not TRPV1-null mice) | blood pressure during infusion (anesthetized mice; infusion) | duration of persistent increase in BP (anesthetized mice; preliminary data) [min] | tachyphylaxis of pressor effect (anesthetized mice; repeated injections) | constriction of radial branch arteries in vivo (radial branch arteries) [%] | effect on nearby veins or arteries in TRPV1-null mice (radial branch arteries) | in vivo half-life [5] [min] | nLacZ staining in DRG (DRG)
1 | COc1cc(CNC(=O)CCCC/C=C/C(C)C)ccc1O [Capsaicin, 8-methyl-N-vanillyl-6-nonenamide] | no responses | increased Ca^2+ signaling | without any significant changes in heart rate | transient bradycardic effect | ~60 | mild burning sensation and a feeling of warmth | did not constrict | ~75 | slowly declining | constricted coronary arterioles | Non-desensitizing currents | pressor; also recorded: markedly increased systemic blood pressure | sustained increase in BP | 15 to 30 | does not exhibit tachyphylaxis | > 90 | without affecting | 3 to 5 | 
2 | resiniferatoxin |  |  |  |  |  |  |  |  | non-desensitizing response |  |  |  |  |  |  |  |  |  | nearly completely abolishes nLacZ staining
